For data set [1] the following is noted: no reference given; cited from earlier work.
For data set [2] the following is noted: ref Nan et al., 2014, Panizzon et al., 2019; cited from earlier work.
Data set [3] is described as follows: Environmental pH of dissolution media. It counts as physicochemical.
Data set [4] can be described thus: Powder dissolution (apparent solubility) in pH 6.8 phosphate buffer and water. Format: physicochemical. As for the experimental part:
A Model 1,525 system (Waters Corporation, Milford MA, United States) equipped with a photodiode array (PDA) detector (Waters 2998, Milford MA, United States) and a SunFire C18 column (4.6 mm × 250 mm, 5 μm, Waters, Ireland) was used for HPLC analysis. The column temperature was maintained at 37°C and the autosampler temperature was room temperature. The mobile phase consisted of methanol and H2O (70:30, v/v) at a flow rate of 1.0 mL/min. The detection wavelength of the UV detector was 248 nm and the injection volume of sample was 20 µL. The standard curve ranged from 10 μg/mL to 0.078125 μg/mL. […] The powders were sieved using standard sieves to control particle size within 75–150 µm. […] The filtrates were diluted to an appropriate concentration, and analyzed using HPLC.

A further data set can be described thus: in vivo. Particulars: male, dog, plasma, beagle dogs, oral, 40 mg/kg.
The nature of data set [5]: Caco-2 cell monolayer transport of DAI (AP to BL). It counts as in vitro ADME. The note with it: human, Caco-2, DAI 50 μg/mL, read-out: apparent permeability coefficient (P app). Here is the method: (§1) Caco-2 cells were seeded on 12-well Transwell® (Corning Costar, Lowell, MA, United States) culture plates (pore size 0.4 µm, surface area 1.12 cm^2) at 5 × 10^4 cells/mL. On the 3rd, 5th, 7th, 13th, 18th, and 21st days of culture, the transepithelial electrical resistance (TEER) value was measured using an EVOM2 transmembrane resistance meter (Millipore, United States) to evaluate the integrity of the Caco-2 cell monolayer.
(§2) After washing the Caco-2 cell monolayer twice with prewarmed Hank’s Balanced Salt Solution (HBSS), the transport experiments were performed by adding the final concentration of DAI (0.5 mL) to the apical side (AP) as the donor chamber, and adding HBSS (1.5 mL) to the basolateral side (BL) as the receiving chamber. The plate was incubated at 37°C and 200 μL of sample was collected from the BL side at 30, 45, 60, 90, and 120 min. […]
(§3) The apparent permeability coefficient (P app ) for DAI was calculated using Eq. 3 ([Ndayishimiye et al., 2022]). Papp=dQ/dt∗1/A∗C0 cm/s (3) where Q refers to the cumulative transport amount, i.e., the total drug quantity on the receiving side (μg); dQ/dt represents the transport rate of the drug through the Caco-2 cell monolayer (μg/s); A denotes the chamber membrane area (1.12 cm^2); and C0 is the initial concentration of DAI on the AP side (μg/mL).

A further data set relates to Caco-2 cell monolayer. Put plainly: Caco-2 cell monolayer transport of DAI (AP to BL). It counts as in vitro ADME. Particulars: 120 min. As for the experimental part:
as §1, §2, §3
(Caco-2 monolayers are a common model of the intestinal barrier.)

A short description of the next data set: in vitro. It counts as cell-based. The note with it: human, Caco-2 cells, read-out: cell viability; for viability at 24 h: Caco-2, 24 h.
In another data set the test system is Caco-2 cells. Briefly: in vitro. The note with it: Caco-2, CCK-8. Format: cell-based.
Data set [6] in a line: Efflux function of the Caco-2 cell model with Rhodamine 123. Particulars: human. Format: in vitro ADME.

Converted amounts (≈) assume the structure as drawn. Like-named read-outs stand apart in the source and are kept apart here. Bounds are passed on as bounds.

The solubility is the dissolved amount per volume that the medium holds. As a reminder, the Tmax is the time from dosing to the highest level. One may read the Cmax as the maximum level reached in the sampled fluid or tissue. Usually viability stands for a read-out of living cells in per cent, often relative to untreated cells. Take `O=c1c(-c2ccc(O)cc2)coc2cc(O)ccc12` [DAI, 4′,7-dihydroxyisoflavone]: the pK a in [1] is recorded as 7.43. The water solubility in data set [2] was 0.31 µg/mL (≈ 1.22 µM). The “environmental pH” value in [3] (medium pH6.8 buffer) was determined as 6.74 ± 0.03; in data set [3] (medium water (pH 7.0)), 3.80 ± 0.06. In addition, the “peak time of Smax” value in [4] (pH 6.8 buffer) was determined as 45 min. In data set [4] (pH 6.8 phosphate buffer, aqueous buffer, thermodynamic from solid, pH 6.8 buffer, 37°C, powder dissolution, read-out: maximum apparent solubility (Smax)), the solubility at 45 min was 1.01 ± 0.06 µg/mL (≈ 3.97 µM). Besides, the “time to reach Smax” value in data set [4] (water) is given as not above 240 min. Besides, the solubility at 240 min in data set [4] (water, 37 °C, water, thermodynamic from solid, read-out: maximum apparent solubility (Smax)) is 0.48 ± 0.09 µg/mL (≈ 1.89 µM). Also, the time of peak concentration (Tmax) in the data set “in vivo” turned out to be 49.8 ± 8.4 min. This compound also returned a Cmax in the data set “in vivo” of 210 ± 40 ng/mL. Further, in the data set “in vivo” (read-out: AUC0∼24), the AUC is 1740 ± 150 ng·h/mL. In data set [5], the Papp at 120 min, 50 μg/mL was determined as 22.8 ± 1.6 ×10⁻⁶ cm/s. Moreover, the “cumulative transport of DAI” value in the data set on Caco-2 cell monolayer turned out to be 9.19 ± 0.65 µg. Besides, the viability at 24 h in the data set “in vitro” (1st of five listed concentrations (not assigned)) stood at 87%; in the data set “in vitro” (2nd of five listed concentrations (not assigned)) it was 88.1%; in “in vitro” (3rd of five listed concentrations (not assigned)) it was 94.7%; in “in vitro” (4th of five listed concentrations (not assigned)) it was 98%; in “in vitro” (5th of five listed concentrations (not assigned)) it was 94%. Also, the “effect on Caco-2 cells” value with Caco-2 cells was “dose-dependent inhibitory effect”.
What is called Papp A→B is the apparent permeability from the apical to the basolateral side of a cell layer. A high value points to fast passage. As usually defined, the Papp B→A is how fast a substance crosses the layer from the basolateral side. Consider `COC(=O)c1ccccc1-c1c2ccc(=N)cc-2oc2cc(N)ccc12` [Rhodamine 123], for which, in data set [6] (120 min), the Papp A→B at 120 min was determined as 0.179 ± 0.061 ×10⁻⁶ cm/s and the Papp B→A at 120 min was 0.852 ± 0.016 ×10⁻⁶ cm/s. In addition, the efflux ratio at 120 min in data set [6] (Papp BL→AP / Papp AP→BL, read-out: Efflux ratio (ER)) came to 4.76.
`C1CNCCN1` [PIP, Piperazine]: the viability at 24 h, 16.94 μg/mL in “in vitro” (Caco-2, PIP 16.94 μg/mL) is 85.2%.

Source of the values: PMC11298695.
